How the values were obtained:
Type in all cases: binding
wt bradavidin [1] = biological target: T1, wt bradavidin (Bradyrhizobium diazoefficiens, UniProt Q89IH6); assay: differential scanning calorimetry; details: 50 mM sodium phosphate pH 7.0, 100 mM NaCl; 15 µM protein, ~3:1 biotin:subunit; 120 °C/hour
T1 construct: gene blr5658; E. coli BL21-AI periplasm; homotetramer
T1 sequence (Q89IH6 26-163): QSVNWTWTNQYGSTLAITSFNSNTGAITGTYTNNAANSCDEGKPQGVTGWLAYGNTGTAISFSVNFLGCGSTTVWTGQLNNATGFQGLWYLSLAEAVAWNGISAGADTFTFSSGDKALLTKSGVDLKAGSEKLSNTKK

core-bradavidin [2] = biological target: T2, core-bradavidin (Bradyrhizobium diazoefficiens, UniProt Q89IH6); assay: isothermal titration calorimetry
T2 construct: gene blr5658; C-terminally truncated core form, 118 residues (truncation between Leu118 and Leu119), lacks Brad-tag; E. coli BL21-AI periplasm; homotetramer
Description: isothermal titration calorimetry on core-bradavidin

wt bradavidin [3] = biological target: T1, wt bradavidin; assay: isothermal titration calorimetry
Description: isothermal titration calorimetry on wt bradavidin

core-bradavidin [4] = biological target: T2, core-bradavidin; assay: differential scanning calorimetry; details: 50 mM sodium phosphate pH 7.0, 100 mM NaCl; 15 µM protein, ~3:1 biotin:subunit; 120 °C/hour

O=C(O)CCCC[C@@H]1SC[C@@H]2NC(=O)N[C@@H]21 [D-biotin]
Tm with biotin (wt bradavidin [1]): 101.7±0.1 °C | Kd (core-bradavidin [2]): < 1 nM | Kd (wt bradavidin [3]): 300 nM | Tm with biotin (core-bradavidin [4]): 97.9±0.2 °C
